According to patent US8580511B2, “Two-color fluorescent reporter for alternative pre-mRNA splicing” (The Regents of the University of California, priority 2006, dated 2013):
Like-named read-outs stand apart in the source and are kept apart here.

System: exon 10 of the human tau gene
Assay: High-throughput small molecule screen with two-color fluorescent (GFP/RFP) splicing reporter in stable cell line
Assay type: cell-based
From the text: Exon 10 of the human tau gene (SEQ ID NO:9; see also, GenBank Accession No. AF027494) containing short stretches (about 50-100 nucleotides) of each of the flanking introns (i.e., intronic sequences from introns 9 and 10; see, e.g., Wang et al., J. Neurochem., 88:1078-1090 (2004)) was cloned into the EcoRI and BamHI restriction sites of the reporter intron (SEQ ID NO:2), which interrupts the start codon of the GFP open reading frame. The clone was linearized using DraIII and transfected into adherent mammalian cells.
In particular, the background was calculated by measuring the fluorescence of each channel after excitation with shorter wavelengths than the optimal for the reporter proteins. This measurement was corrected using data from non-reporter cells before being subtracted from the reporter-expressing cells as background. The following formulas describe the background subtraction procedure: […]
The two-color fluorescent reporter constructs described above carrying exon 10 of the human tau gene were used in high-throughput small molecule screens of a library of enzyme inhibitors (FIG. 6A) and a library of FDA approved drugs (FIG. 6B). The stable cell line was plated at density of 5000 cells per well in 384-well plates. HEK 293 cells to be used as the non-fluorescent control for background subtraction were plated in separate plates at the same density. Each library was applied to the plates and the cells were incubated for 16 hours. The media was removed and the cells were lysed in RIPA buffer (1% Nonidet P-40, 1% sodium deoxycholate, 0.1% SDS, 150 mM NaCl, 10 mM sodium phosphate (pH 7.2), 2 mM EDTA, 50 mM NaF, 5 mM beta-glycerophosphate). The fluorescence intensities were measured using an Analyst AD plate reader. The background was subtracted as described above and the logarithm at base 2 was calculated for the ratio of RFP to GFP fluorescence intensities (log-ratio) and the product of the GFP and RFP fluorescence intensities (log-expression) for each data point. The log-ratios were normalized by Lowess regression using the log-expression as an independent variable.

[1] = log2 of RFP/GFP fluorescence, background subtracted, Lowess normalized, enzyme inhibitor library, 16 hours incubation, DMSO control −0.21

SMILES | Log-ratio [1] | Log-ratio
CCCCCCCCCCCCCCCC(=O)OC(CC(=O)O)C[N+](C)(C)C.[Cl-] (racemic) [PALMITOYL-DL-CARNITINE CI] | 0.61 | 
Nc1ncnc2c1c(I)cn2[C@@H]1O[C@H](CO)[C@@H](O)[C@H]1O [5-IODOTUBERCIDIN] | −1.03 | 
CC(C)(C)c1cc(/C=C(\C#N)C(N)=S)cc(C(C)(C)C)c1O [AG-879] | 1.59 | 
CN(CCc1ccc(Cl)c(Cl)c1)CC(O)COc1ccc(NS(C)(=O)=O)cc1 (stereo not drawn) [AM 92016] | 0.44 | 
CCCCc1oc2ccccc2c1C(=O)c1cc(I)c(OCCN(CC)CC)c(I)c1 [AMIODARONE] | 0.63 | 
CCCCC/C=C\C/C=C\C/C=C\C/C=C\CCCC(=O)N[C@@H](C)C(=O)O [Arachidonoyl alanine] | 0.38 | 
CC(C)COCC(CN(Cc1ccccc1)c1ccccc1)N1CCCC1 (stereo not drawn) [BEPRIDIL] | 0.74 | 
CC1(C(=O)O)C2CCC(O2)C1(C)C(=O)O (stereo not drawn) [CANTHARIDIC ACID] | −1.72 | 
NCCNS(=O)(=O)c1cccc2cnccc12 [Compound H-9] | 0.61 | 
N#CC(=C(/N)Sc1ccccc1N)/C(C#N)=C(\N)Sc1ccccc1N [Compound U-0126] |  | 0.44
N/C(=N\C(=O)c1nc(Cl)c(N)nc1N)NCc1ccc(Cl)c(Cl)c1 [DICHLOROBENZAMIL] | 1.75 | 
CCCCC/C=C\C/C=C\C/C=C\CCCCCCC(=O)NCC(=O)O [Dihomo-gamma-linolenoyl glycine] | 0.49 | 
Cc1cc(O)c2c(=O)c3c(O)cc(O)c4c5c(O)cc(O)c6c(=O)c7c(O)cc(C)c8c1c2c(c34)c(c78)c65 [HYPERICIN] | 1.14 | 
COc1ccc(S(=O)(=O)N(CCO)c2ccccc2CN(C)C/C=C/c2ccc(Cl)cc2)cc1 [KN-93] | 0.75 | 
CN(C)C(=O)C(CCN1CCC(O)(c2ccc(Cl)cc2)CC1)(c1ccccc1)c1ccccc1 [LOPERAMIDE] |  | 0.72
O=c1cc(N2CCOCC2)oc2c(-c3ccccc3)cccc12 [LY 294002] | 0.85 | 
O=S(=O)(c1cccc2c(I)cccc12)N1CCCNCC1 [ML-7] | 0.72 | 
O=S(=O)(c1cccc2c(Cl)cccc12)N1CCCNCC1 [ML-9] | 0.52 | 
COC(=O)C1=C(C)NC(C)=C(C(=O)OCCN(C)Cc2ccccc2)C1c1cccc([N+](=O)[O-])c1 (stereo not drawn) [NICARDIPINE] | 0.68 | 
C=C(C)[C@H]1O[C@H]2CC[C@@]3(C)[C@@](O)(CC[C@H]4[C@@H]5OC(C)(C)[C@H]6C[C@@H]7C(=C)Cc8c(Cl)cc9[nH]c(c5c9c8[C@@]76O)[C@@]43C)[C@@]23O[C@H]3[C@H]1O [PENITREM A] | 0.56 | 
O=c1[nH]c2ccccc2n1C1CCN(CCCC(c2ccc(F)cc2)c2ccc(F)cc2)CC1 [PIMOZIDE] | 0.69 | 
C=C[C@H]1C[N@@]2CC[C@H]1C[C@H]2[C@H](O)c1ccnc2ccc(OC)cc12 [QUININE] | 0.43 | 
CC(=O)c1c(O)c(C)c(O)c(Cc2c(O)c3c(c(C(=O)/C=C/c4ccccc4)c2O)OC(C)(C)C=C3)c1O [ROTTLERIN] | 1.27 | 
Oc1ccc(-c2nc(-c3ccncc3)c(-c3ccc(F)cc3)[nH]2)cc1 [SB-202190] | 0.46 | 
CC(C)(C)c1cc(C=C(C#N)C#N)cc(C(C)(C)C)c1O [TYRPHOSTIN 9] | 1.69 | 
N#C/C(=C\c1ccc(O)c(O)c1)C(N)=S [TYRPHOSTIN 47] | 0.48 | 
COC[C@H]1OC(=O)c2coc3c2[C@@]1(C)C1=C(C3=O)[C@@H]2CCC(=O)[C@@]2(C)C[C@H]1OC(C)=O [WORTMANNIN] | 1.37 | 
